Laboratory results taken from PMC11959975 (Acta Pharmaceutica Sinica. B, 2025).

How the values were obtained:
[1] = system: mice; experiment: Bleeding time of tail clipping in mice; type: in vivo; details: 5 mg/kg
[2] = system: arteriovenous shunt thrombosis model in rats; experiment: Arteriovenous shunt thrombosis model in rats; type: in vivo; details: 10 mg/kg, i.v.
[3] = system: MCAO model of SD rats; experiment: Rat model of acute ischemic stroke; type: in vivo; details: acute IS rats, 10 mg/kg
[4] = system: permanent cerebral ischemic stroke in rats; experiment: Rat model of permanent ischemic stroke; type: in vivo, SD rats; details: permanent IS rats
[5] = system: MCAO model of SD rats; experiment: Rat model of chronic ischemic stroke; type: in vivo; details: chronic IS rats

| SMILES | Bleeding time [1] [min] | inhibition (%) of dry thrombus [2] [%] | inhibition (%) of wet thrombus [2] [%] | reduction of cerebral infarction volume vs model group [3] [%] | reduction of cerebral infarction volume vs model group ([4]; 10 mg/kg) [%] | NSS value ([4]; day 1 after surgery) | reduction of cerebral infarction volume ([5]; 5.0 mg/kg) [%] | misstep frequency (grid test) ([5]; day 14 after modeling) |
| --- | --- | --- | --- | --- | --- | --- | --- | --- |
| CC(=O)Oc1ccccc1C(=O)O [ASP, O-acetoxybenzoic acid] | 22.52 ± 1.31 | 39.67 | 40.74 | – | – | – | – | – |
| CCCCC1OC(=O)c2ccccc21 (stereo not drawn) [NBP, R,S-3-n-butylphthalide] | – | – | – | 35 | 7 | lower than that of the model group but without significant difference | 32 | significantly higher than that in the sham group |
| CCCCC(O)c1ccccc1C(=O)[O-].[K+] (stereo not drawn) [PHPB, potassium 2-(1-hydroxypentyl)-benzoate] | – | 11.32 | 15.39 | – | – | – | – | – |
| CCCC[C@@H]1OC(=O)c2ccccc21 [S-NBP] | – | 25.95 | 33.24 | – | – | – | – | – |
